Results reported in ChEMBL document CHEMBL1151136, “Searching for Bioactive Compounds: Various Strategies” (J Nat Prod, 1990).
In brackets after ≈: the same amount, converted by molar mass.

What was measured:
[1] = Cytotoxicity against ovarian cancer cells; format: functional; conditions: Cancer cell lines; read-out: ID50 (the source's name)
Penicillium citrinum = assay: Antimicrobial activity against Penicillium citrinum; format: functional
Staphylococcus aureus = assay: Antimicrobial activity against Staphylococcus aureus; format: functional
Bacillus subtilis = assay: Antimicrobial activity against Bacillus subtilis; format: functional
[2] = Cytotoxicity against CHL cells; format: cell-based, Cricetulus griseus; conditions: chinese hamster, read-out: LD50 (the source's name)

SMILES | MIC (Staphylococcus aureus) [µg/mL] | MIC (Bacillus subtilis) [µg/mL] | other results
C=C/C(C)=C/C[C@]1(C)[C@H]2C[C@@H](O)C=C3[C@H](OC(C)=O)O[C@@H](OC(C)=O)[C@@]32[C@H](OC(=O)/C=C/c2ccccc2)C[C@@H]1C | – | – | IC50 [1]: 35 µg/mL (≈ 62 µM)
CC(=O)O[C@@H]1[C@H](OC(C)=O)[C@@H](Oc2c(-c3ccc(O)cc3)oc3cc(O)cc(O)c3c2=O)O[C@H](C)[C@H]1OC(=O)/C=C/c1ccc(O)cc1 | – | – | MIC (Penicillium citrinum): < 30 µg/mL
C=C(CC(=O)O)C(=O)C[C@@]1(C)[C@H](C)CC[C@@]2(C)C(C)=CCC[C@H]12 | 20 (≈ 62.8 µM) | 25 (≈ 78.5 µM) | –
C=C/C(C)=C/C[C@@]1(C)[C@@H](C)[C@H](OC(=O)CCCCCCCCC)[C@@H](OC(C)=O)[C@]23C(=C[C@H](O)C[C@@]21C)[C@@H](OC(C)=O)O[C@@H]3OC(C)=O | – | – | CC50 [2]: 770 nM
CN[C@@H]1[C@H](O[C@H]2[C@H](O[C@H]3[C@H](O)[C@@H](O)[C@H](N=C(N)N)[C@@H](O)[C@@H]3N=C(N)N)O[C@@H](C)[C@]2(O)C=O)O[C@@H](CO)[C@H](O)[C@H]1O.CN[C@@H]1[C@H](O[C@H]2[C@H](O[C@H]3[C@H](O)[C@@H](O)[C@H](N=C(N)N)[C@@H](O)[C@@H]3N=C(N)N)O[C@@H](C)[C@]2(O)C=O)O[C@@H](CO)[C@H](O)[C@H]1O.O=S(=O)(O)O.O=S(=O)(O)O.O=S(=O)(O)O [STREPTOMYCIN SULFATE] | 6.3 | 12.5 | –
